According to PubChem BioAssay (NCI):
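Cultured in 96-well plates, cells were exposed to test compound for 48 hours across five concentrations. TGI: concentration producing complete growth inhibition.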

Columns and labels:
Experiment in all cases: NCI-60 cell line screen, 48 h
HS 578T breast = test system: HS 578T breast
SW-620 colon = test system: SW-620 colon
HCT-15 colon = test system: HCT-15 colon
T-47D breast = test system: T-47D breast
CCRF-CEM leukemia = test system: CCRF-CEM leukemia
HCT-116 colon = test system: HCT-116 colon
HCC-2998 colon = test system: HCC-2998 colon
NCI-H23 lung = test system: NCI-H23 lung
A498 renal = test system: A498 renal
ACHN renal = test system: ACHN renal
NCI/ADR-RES ovarian = test system: NCI/ADR-RES ovarian
MOLT-4 leukemia = test system: MOLT-4 leukemia
CAKI-1 renal = test system: CAKI-1 renal
A549 NSCLC = test system: A549 NSCLC
SK-OV-3 ovarian = test system: SK-OV-3 ovarian
TK-10 renal = test system: TK-10 renal
MDA-MB-231 breast = test system: MDA-MB-231 breast
SK-MEL-5 melanoma = test system: SK-MEL-5 melanoma
EKVX NSCLC = test system: EKVX NSCLC
MDA-MB-435 = test system: MDA-MB-435
BT-549 breast = test system: BT-549 breast
PC-3 prostate = test system: PC-3 prostate
HL-60(TB) leukemia = test system: HL-60(TB) leukemia
MALME-3M melanoma = test system: MALME-3M melanoma
SN12C renal = test system: SN12C renal
MDA-N = test system: MDA-N
UO-31 renal = test system: UO-31 renal
SK-MEL-2 melanoma = test system: SK-MEL-2 melanoma
DU-145 prostate = test system: DU-145 prostate
M14 melanoma = test system: M14 melanoma
OVCAR-3 ovarian = test system: OVCAR-3 ovarian
SNB-19 CNS = test system: SNB-19 CNS
MCF7 breast = test system: MCF7 breast
OVCAR-8 ovarian = test system: OVCAR-8 ovarian
NCI-H522 lung = test system: NCI-H522 lung
UACC-62 melanoma = test system: UACC-62 melanoma
UACC-257 melanoma = test system: UACC-257 melanoma
K-562 leukemia = test system: K-562 leukemia
U251 CNS = test system: U251 CNS
SR leukemia = test system: SR leukemia
SK-MEL-28 melanoma = test system: SK-MEL-28 melanoma
SF-539 CNS = test system: SF-539 CNS
KM12 colon = test system: KM12 colon
LOX IMVI melanoma = test system: LOX IMVI melanoma
HOP-92 NSCLC = test system: HOP-92 NSCLC
NCI-H460 lung = test system: NCI-H460 lung
RXF 393 renal = test system: RXF 393 renal
SF-295 CNS = test system: SF-295 CNS
OVCAR-5 ovarian = test system: OVCAR-5 ovarian
COLO 205 colon = test system: COLO 205 colon
HOP-62 NSCLC = test system: HOP-62 NSCLC
786-0 renal = test system: 786-0 renal
IGROV1 ovarian = test system: IGROV1 ovarian
SF-268 CNS = test system: SF-268 CNS
HT29 colon = test system: HT29 colon
OVCAR-4 ovarian = test system: OVCAR-4 ovarian
NCI-H226 lung = test system: NCI-H226 lung

Measured: TGI

O=C1/C(=C\c2cccc(Oc3ccccc3)c2)S(=O)(=O)C(c2ccccc2)N1Cc1ccccc1 (stereo unspecified)
47.9 µM: UO-31 renal
77.5 µM: RXF 393 renal
71.9 µM: EKVX NSCLC
33.7 µM: HCT-15 colon | NCI-H522 lung
76.6 µM: M14 melanoma
7.7 µM: MOLT-4 leukemia
57.7 µM: HL-60(TB) leukemia | UACC-62 melanoma
73.3 µM: HOP-92 NSCLC
40.9 µM: NCI-H460 lung
96.5 µM: MDA-MB-435
62.2 µM: UACC-257 melanoma
45 µM: NCI/ADR-RES ovarian
93.2 µM: SK-MEL-28 melanoma
49.4 µM: ACHN renal
40.5 µM: HS 578T breast
57 µM: COLO 205 colon
95.5 µM: MDA-N
40.1 µM: 786-0 renal
53.4 µM: OVCAR-8 ovarian
40.7 µM: SK-MEL-2 melanoma
55.6 µM: SNB-19 CNS
62.9 µM: LOX IMVI melanoma
82.5 µM: HCC-2998 colon
56.8 µM: KM12 colon
74 µM: DU-145 prostate
58.6 µM: SN12C renal
68.1 µM: MDA-MB-231 breast
37.8 µM: MALME-3M melanoma
34.2 µM: OVCAR-3 ovarian
46.2 µM: SR leukemia
98.6 µM: BT-549 breast
75 µM: CAKI-1 renal
39.3 µM: SK-MEL-5 melanoma
not listed: IGROV1 ovarian | SF-268 CNS | HT29 colon | OVCAR-4 ovarian | NCI-H226 lung
> 100 µM: all other assays above

CCN(CCO)CC1COc2ccccc2O1 (stereo unspecified)
not listed: SW-620 colon | SK-MEL-2 melanoma | SNB-19 CNS
> 100 µM: all other assays above
